Structures are written as SMILES.

This data set concerns the target T1, sGC α1/β1 heterodimer (Homo sapiens, UniProt Q02108+Q02153).
T1 construct: expressed in transfected cells; host or cells: CHO-K1 (clone #7, CHO-K1/sGC)
T1 sequence (Q02108 1-690): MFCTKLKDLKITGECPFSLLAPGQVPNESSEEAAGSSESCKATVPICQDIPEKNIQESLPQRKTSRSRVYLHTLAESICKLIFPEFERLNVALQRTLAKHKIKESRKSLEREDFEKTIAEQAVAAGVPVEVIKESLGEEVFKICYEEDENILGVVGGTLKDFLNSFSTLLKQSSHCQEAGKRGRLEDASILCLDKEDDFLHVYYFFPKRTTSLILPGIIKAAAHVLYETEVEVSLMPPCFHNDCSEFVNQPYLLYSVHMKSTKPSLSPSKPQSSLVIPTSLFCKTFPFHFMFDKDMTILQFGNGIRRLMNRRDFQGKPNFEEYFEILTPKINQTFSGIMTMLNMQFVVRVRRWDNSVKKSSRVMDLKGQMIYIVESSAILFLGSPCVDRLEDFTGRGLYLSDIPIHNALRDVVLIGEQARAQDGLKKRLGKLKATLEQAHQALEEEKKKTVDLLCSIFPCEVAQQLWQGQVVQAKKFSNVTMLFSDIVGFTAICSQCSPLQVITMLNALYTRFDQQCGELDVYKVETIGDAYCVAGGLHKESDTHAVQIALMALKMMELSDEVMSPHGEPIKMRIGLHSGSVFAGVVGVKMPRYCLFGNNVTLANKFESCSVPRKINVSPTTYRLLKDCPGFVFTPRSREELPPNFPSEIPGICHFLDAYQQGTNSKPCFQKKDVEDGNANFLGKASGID
T1 sequence (Q02153 1-619): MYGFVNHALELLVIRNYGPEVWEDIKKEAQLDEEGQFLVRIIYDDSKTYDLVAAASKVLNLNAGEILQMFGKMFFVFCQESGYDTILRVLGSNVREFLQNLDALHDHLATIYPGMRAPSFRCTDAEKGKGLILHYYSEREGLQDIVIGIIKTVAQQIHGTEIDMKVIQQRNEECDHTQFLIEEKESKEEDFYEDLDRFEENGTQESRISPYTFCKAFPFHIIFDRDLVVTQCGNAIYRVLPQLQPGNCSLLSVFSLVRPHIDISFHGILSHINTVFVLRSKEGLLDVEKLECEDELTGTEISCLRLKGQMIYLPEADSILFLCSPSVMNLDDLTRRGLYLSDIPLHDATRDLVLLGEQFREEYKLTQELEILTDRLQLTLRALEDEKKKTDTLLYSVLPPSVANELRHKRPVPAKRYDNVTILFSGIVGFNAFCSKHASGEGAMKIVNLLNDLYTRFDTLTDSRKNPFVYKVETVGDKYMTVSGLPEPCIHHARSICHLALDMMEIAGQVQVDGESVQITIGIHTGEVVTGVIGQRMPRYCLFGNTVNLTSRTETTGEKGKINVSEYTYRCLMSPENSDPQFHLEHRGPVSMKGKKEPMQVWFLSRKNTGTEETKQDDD
Nature of the data set: Cell-based sGC Functional Assay (CASA Assay): cGMP generation in CHO-K1/sGC cells, HTRF readout. As to conditions: without ODQ incubation; for EC50: read-out: IP (inflection point). The text has this:
Cell-based sGC Functional Assay (CASA Assay) Rationale: sGC is a heme-containing enzyme that converts GTP to secondary messenger cGMP. Increases in cGMP levels affect several physiological processes including vasorelaxation through multiple downstream pathways. […] Heme-dependent activators (HDAs) preferentially activate sGC containing a ferrous Deme group. To determine the effect of sGC activators on enzyme activity, the CASA assay was developed to monitor the generation of cGMP in a cell line that stably expresses the heterodimeric sGC protein. Methods: A CHO-K1 cell line stably expressing the sGC α1/β1 heterodimer was generated using a standard transfection protocol. CHO-K1 cells were transfected with plasmids pIREShyghsGCα1 and pIRESneo-hsGCβ1 simultaneously using FUGENE reagent. Clones that stably express both subunits were selected with hygromycin and neomycin for ˜2 weeks. Clone #7 was chosen for the assay and was designated CHO-K1/sGC. CHO-K1/sGC cells were maintained in F-K12 medium containing 10% heat-inactivated Fetal Bovine Serum (FBS), 100 μg/mL penicillin/streptomycin, 0.5 mg/mL hygromycin and 0.25 mg/mL G418. On the day of the assay, cells were harvested in EBSS Assay Buffer (EAB) containing 5 mM MgCl2, 10 mM HEPES (4-(2-hydroxyethyl)piperazine-1-ethanesulfonic acid) and 0.05% BSA (bovine serum albumin) and cell density was adjusted to 2×10^6/mL with EAB. IBMX (3-isobutyl-1-methylxanthin, 0.5 mM) was added to inhibit degradation of cGMP. Compounds were diluted from DMSO stock solutions and added to the assay at a final DMSO concentration of 1%. Cells were incubated with compounds of the invention, in the presence and/or absence of 10 μM of 1H-(1,2,4)oxadiazolo(4,3-a) quinoxalin-1-one (ODQ), for 1 hr at 37° C. At the end of the incubation period, the reaction was terminated and the cells were lysed. The level of intracellular cGMP was determined using an HTRF-based assay kit (from CisBio, 62GM2PEC), which detects the displacement of a fluorescence labeled cGMP from its specific antibody. HTRF is a TR-FRET based technology that uses the principles of TRF and FRET. The amount of cGMP was plotted against compound concentration in PRISM software and the inflection point (IP) and maximum fold induction over DMSO control were derived from the plot.
Background: In TR-FRET formats the signal depends on donor and acceptor labels being close together.

Turning to `Nc1nc(-c2nc(Cc3c(F)ccc(F)c3F)n3cc(F)ccc23)ncc1-c1cccnc1` [Example 56, 2-[6-fluoro-3-(2,3,6-trifluorobenzyl)imidazo[1,5-a]pyridin-1-yl]-5-pyridin-3-ylpyrimidin-4-amine], the “Maximum fold induction over DMSO control” value is recorded as 322 fold and the EC50 was 397 nM.
As to `Cc1c(-c2cnc(-c3nc(Cc4c(F)ccc(F)c4F)n4ncccc34)nc2N)c(C(F)(F)F)nn1C` [Example 3, 5-[1,5-dimethyl-3-(trifluoromethyl)-1H-pyrazol-4-yl]-2-[7-(2,3,6-trifluorobenzyl)imidazo[1,5-b]pyridazin-5-yl]pyrimidin-4-amine], the “Maximum fold induction over DMSO control” value was found to be 71 fold and the EC50 came out at 499 nM.
On to `Cc1cc(-c2cnc(-c3nc(Cc4c(F)ccc(F)c4F)n4ncccc34)nc2N)ccn1` [Example 4, 5-(2-methylpyridin-4-yl)-2-[7-(2,3,6-trifluorobenzyl)imidazo[1,5-b]pyridazin-5-yl]pyrimidin-4-amine], for which the “Maximum fold induction over DMSO control” value is 55 fold and the EC50 turned out to be 178 nM.
As to `Nc1nc(-n2nc(Cc3c(F)ccc(F)c3F)c3cc(Cl)ccc32)nc(N)c1NC(=O)C1CC1` [Example 178, N-{4,6-diamino-2-[5-chloro-3-(2,3,6-trifluorobenzyl)-1H-indazol-1-yl]pyrimidin-5-yl}cyclopropanecarboxamide], the “Maximum fold induction over DMSO control” value was found to be 74 fold and the EC50 worked out at 524 nM.
On to `Nc1nc(-n2nc(CCC3CCCC3)c3ccccc32)nc(N)c1-c1cccnc1` [Example 208, 2-[3-(2-cyclopentylethyl)-1H-indazol-1-yl]-5-pyridin-3-ylpyrimidine-4,6-diamine], for which the “Maximum fold induction over DMSO control” value came to 244 fold and the EC50 stood at 540 nM.
As to `Nc1nc(-c2nc(Cc3c(F)ccc(F)c3F)n3cc(F)ccc23)ncc1-c1ccnc2ccc(F)cc12` [Example 73, 5-(6-fluoroquinolin-4-yl)-2-[6-fluoro-3-(2,3,6-trifluoro-benzyl)imidazo[1,5-a]pyridin-1-yl]pyrimidin-4-amine], the “Maximum fold induction over DMSO control” value was found to be 234 fold and the EC50 came out at 170 nM.
Take `Nc1nc(-c2nc(Cc3c(F)ccc(F)c3F)n3ncccc23)ncc1-c1cccc2ncccc12` [Example 7, 5-quinolin-5-yl-2-[7-(2,3,6-trifluorobenzyl)imidazo[1,5-b]pyridazin-5-yl]pyrimidin-4-amine]: the “Maximum fold induction over DMSO control” value is 129 fold and the EC50 worked out at 296 nM.
Consider `Cn1cc(-c2c(N)nc(-n3nc(Cc4c(F)ccc(F)c4F)c4cc(Cl)ccc43)nc2N)cn1` [Example 83, 2-[5-chloro-3-(2,3,6-trifluorobenzyl)-1H-indazol-1-yl]-5-(1-methyl-1H-pyrazol-4-yl)pyrimidine-4,6-diamine], for which the “Maximum fold induction over DMSO control” value is given as 127 fold and the EC50 stood at 34 nM.

(Values after patent US9284301B2, “Soluble guanylate cyclase activators” (Merck Sharp & Dohme Corp., priority 2010, dated 2016).)
